Test results taken from patent US11744830B2, “Ameliorative agent for cytokine release syndrome and so on” (TORII PHARMACEUTICAL CO., LTD., priority 2018, dated 2023).
Where a name gives a salt, the structure may show the parent alone.

Experiments:
[1] = test system: IL-18 production from LPS-pretreated CD14^+ cells; experiment: ATP stimulation-induced IL-18 production from LPS-pretreated CD14^+ cells; type: cell-based, human; conditions: for IC50: Homo sapiens, CD14^+ cells (LPS-pretreated), ATP 5 mM
Experimental: Cryopreserved PBMCs were quickly thawed in a 37° C. thermostat and added to a tube containing medium. After centrifugation (at room temperature at 300 g for 10 minutes) to remove the supernatant, the cells were suspended again in the medium, followed by counting the number of viable cells. The cell suspension was centrifuged (at room temperature at 300 g for 10 minutes) to remove the supernatant, followed by addition of MACS Buffer to suspend the cells, to which Human CD14 MicroBeads were further added. After being allowed to stand on ice for 15 minutes, the cell suspension was diluted with MACS Buffer and centrifuged (at room temperature at 300 g for 10 minutes) to remove the supernatant.
MACS Buffer was added to the tube, and the cells were suspended and then applied to a separatory column to separate CD14^+ cells. The CD14^+ cell fraction was diluted with the medium and then centrifuged (at room temperature at 300 g for 10 minutes). The supernatant was removed and the cells were suspended in the medium (1 mL), followed by counting the number of viable cells. The cell suspension adjusted with the medium to 2×10^6 cells/mL was seeded in a 96-well plate (1×10^5 cells/well) and allowed to stand in a CO2 incubator for 1 to 2 hours. […] The cells were then stimulated with LPS (final concentration: 500 ng/mL) for 6 hours at 37° C. and an ATP solution (final concentration: 5 mM) was added thereto, and the 96-well plate was further allowed to stand in a CO2 incubator for 2 hours to collect the culture supernatants.
The collected culture supernatants were quantified for IL-18 using Human IL-18 DuoSet ELISA.

MCP-1 production = experiment: CRS toxicity evaluation system using CAR-T cells: MCP-1; type: cell-based, human; conditions: Homo sapiens, Monocyte; CAR-T cells, target cells and monocytes, 72 hours
Experimental: (§1) The supernatants were collected at 72 hours after the initiation of culture, and various cytokines in each supernatant were measured by FACS multiplex assay.

[2] = test system: IFN-γ production from CD8^+ T cells; experiment: T-cell stimulation bead-induced IFN-γ production in CD8^+ T cells; type: cell-based, human; conditions: CD3/CD28 stimulation, 3 days
Experimental: Cryopreserved PBMCs were quickly thawed in a 37° C. thermostat and added to a tube containing medium. After centrifugation (at room temperature at 300 g for 10 minutes) to remove the supernatant, the cells were suspended in the medium, a portion of which was then mixed with a trypan blue solution to count the number of viable cells. The cell suspension was centrifuged (at room temperature at 300 g for 10 minutes) to remove the supernatant, followed by addition of MACS Buffer in a volume of 80 μL per 1×10^7 cells to suspend the cells, to which Human CD8 MicroBeads (20 μL) were further added. After being allowed to stand on ice for 15 minutes, the cell suspension was diluted with MACS Buffer (2 mL) and centrifuged (at room temperature at 300 g for 10 minutes) to remove the supernatant.
MACS Buffer (500 μL) was added to the tube, and the cells were suspended and then applied to a separatory column to separate CD8^+ cells. The CD8^+ cell fraction was diluted to 15 mL with the medium and then centrifuged (at room temperature at 300 g for 10 minutes). The supernatant was removed and the cells were suspended in the medium (1 mL), followed by counting the number of viable cells. The cell suspension adjusted with the medium to 1×10^6 cells/mL was seeded in a 96-well plate in a volume of 100 μL/well (1×10^5 cells/well) and allowed to stand in a CO2 incubator for 1 to 2 hours.
The collected culture supernatants were quantified for IFN-γ using Human IFN-γ DuoSet ELISA.

[3] = test system: IFN-γ production from PBMCs; experiment: T-cell stimulation bead- and LPS stimulation-induced CRS toxicity evaluation system in PBMCs: IFN-γ; type: cell-based, human; conditions: for IC50: Homo sapiens, PBMC, 72 h, PBMCs, CD3/CD28 + LPS, 3 days
Experimental: Cryopreserved PBMCs were quickly thawed in a 37° C. thermostat and added to a tube containing medium. After centrifugation (at room temperature at 300 g for 10 minutes) to remove the supernatant, the cells were suspended again in the medium (10 mL), followed by counting the number of viable cells. After centrifugation (at room temperature at 300 g for 10 minutes) to remove the supernatant, the medium was added to suspend the cells at 1×10^6 cells/mL. This cell suspension was seeded in a 96-well plate in a volume of 100 μl/well (1×10^5 cells/well) and allowed to stand in a CO2 incubator for 1 to 2 hours.
The cells were cultured in a CO2 incubator for 3 days to collect the culture supernatants.
(§2) The collected culture supernatants were quantified for IFN-γ and IL-6 using Human IFN-γ DuoSet ELISA and Human IL-6 DuoSet ELISA.

IL-8 production = experiment: CRS toxicity evaluation system using CAR-T cells: IL-8; type: cell-based, human; conditions: for IC50: Homo sapiens, Monocyte, CAR-T cells, target cells and monocytes, 72 hours
Experimental: as §1

IL-18 production = experiment: CRS toxicity evaluation system using CAR-T cells: IL-18; type: cell-based; conditions: Homo sapiens, Monocyte, target cells and monocytes, 72 hours, reference data because of low production
Experimental: as §1

[4] = test system: IFN-γ production in CD4^+ T cell-depleted PBMCs; experiment: T-cell stimulation bead- and LPS stimulation-induced CRS toxicity evaluation system in CD4^+ T cell-depleted PBMCs: IFN-γ; type: cell-based; conditions: Homo sapiens, 72 h, CD3/CD28 + LPS, 3 days
Experimental: Cryopreserved human PBMCs were quickly thawed in a 37° C. thermostat and added to a tube containing medium. After centrifugation (at room temperature at 300 g for 10 minutes) to remove the supernatant, the cells were suspended again in the medium (10 mL), followed by counting the number of viable cells. The remainder of the cell suspension was centrifuged (at room temperature at 300 g for 10 minutes) to remove the supernatant, followed by addition of MACS Buffer in a volume of 80 μL and Human CD4 MicroBeads in a volume of 20 μL per 1×10^7 cells to suspend the cells. After being allowed to stand on ice for 15 minutes, the cell suspension was diluted with MACS Buffer (2 mL) and centrifuged (at room temperature at 300 g for 10 minutes) to remove the supernatant. MACS Buffer (500 μL) was added to the tube, and the cells were suspended and then applied to a separatory column to separate CD4^− cells (a pass-through fraction of CD4^+ cells). The CD4^− cell fraction was diluted to 15 mL with the medium and then centrifuged (at room temperature at 300 g for 10 minutes) to remove the supernatant, and the cells were then suspended again in the medium (1 mL), followed by counting the number of viable cells. […]
as §2

TNF-α production = experiment: CRS toxicity evaluation system using CAR-T cells: TNF-α; type: cell-based, human; conditions: for IC50: Homo sapiens, Monocyte, CAR-T cells, target cells and monocytes, 72 hours
Experimental: as §1

[5] = CRS toxicity evaluation system using CAR-T cells

`C[C@]12C=CC(=O)C=C1CC[C@@H]1[C@@H]2[C@@H](O)C[C@@]2(C)[C@H]1CC[C@]2(O)C(=O)CO` [PSL, Prednisolone] was tested, and the IC50 [1] was over 30000 nM, the “suppressive effect on IL-18 production” value ([1]; LPS-pretreated CD14^+ cells, ATP) was “no suppressive effect” and the IC50 (MCP-1 production) was 71800 nM. For the same molecule, the IC50 [2] was 149 nM, the IC50 ([2]; Homo sapiens, T-cell, 72 h) was 149 nM and the IC50 [3] was 53 nM. For the same molecule, the “suppression of IFN-γ production versus IL-6 production” value ([3]; PBMCs co-stimulated with T-cell stimulation beads and LPS) was “more strongly suppressed IFN-γ production than IL-6 production”, the “suppressive effect on IL-8 production” value (IL-8 production; [5]) was “no suppressive effect” and the IC50 (IL-8 production) was over 100000 nM. The IC50 (IL-18 production) was over 100000 nM, the IC50 [4] was 42 nM and the “suppressive effect on TNF-α” value (TNF-α production; [5]) was “no suppressive effect”. For the same molecule, the IC50 (TNF-α production) was over 100000 nM.

`CCOC(=O)[C@H](Cc1ccccc1)NC(=O)c1cc(Cl)c(OCCN2CCN(C)CC2)c(Cl)c1O` [JTE-607, (−)-ethyl N-{3,5-dichloro-2-hydroxy-4-[2-(4-methylpiperazin-1-yl)ethoxy]benzoyl}-L-phenylalaninate dihydrochloride] gave an IC50 [1] of 2.4 nM, an IC50 (MCP-1 production) of 37.6 nM and an IC50 ([2]; Homo sapiens, T-cell, 72 h) of over 300 nM. The IC50 [3] was 50.1 nM, the IC50 (IL-8 production) was 154 nM and the IC50 (IL-18 production) was 871 nM. For the same molecule, the IC50 [4] was 80.9 nM and the IC50 (TNF-α production) was 413 nM.
